Assay results reported in patent US20240327471A1, “IL-10 INDUCING POLYPEPTIDES AND USES THEREOF” (ENTEROME S.A., priority 2021, published 2024).

Tested on: human ileal explants
Experiment: Ex vivo human ileal explants in Ussing chambers inflamed with E. coli LF82 (TER, histology, IL-8 ELISA)
Type: cell-based
Description: Next, the role of NAT_29 was evaluated in the context of inflammatory diseases using ex vivo experiments performed on human ileal resections. To this end, explants were mounted on Ussing Chambers in order to separate the apical side from the basolateral side as naturally occurs in the gut. Tissues were pre-incubated 1 h with NAT_29 (SEQ ID NO: 1) before inflammation was triggered with live Escherichia coli LF82 during 4 hours.
Preparation of Bacteria: The day before the assay, LB broth (Sigma Aldrich, L3522) was inoculated, using sterile loops, with bacteria from a glycerol stock (E. coli LF82-gfp) maintained at −80° C. Tubes were incubated overnight at 37° C. without shaking. The next day, optical density of the bacterial suspensions was read at 600 nm using a spectrophotometer (Amersham Ultrospec 10) allowing estimation of the bacterial cell density and bacteria were added to human explants as explained below.
Human tissue samples were obtained from patients undergoing surgery with the patients' agreement. Samples were taken from macroscopically unaffected area as identified by the surgeon. […]
Three parameters were assessed to evaluate the anti-inflammatory potential of NAT_29 in the ex vivo model: • 1) Transepithelial Electrical Resistance (TER) which is a measure of integrity/tightness of the human explants; • 2) histology; • 3) IL-8 secretion (quantified by Elisa).
TER assays are well-known methods for measuring effects on the structural and functional integrity of an epithelial cell layer, which are described, for example, in: Srinivasan et al., 2015, J Lab Autom, 20:107-126. Accordingly, the integrity/tightness of the human explants during the incubation was evaluated through Transepithelial Electrical Resistance (TER) measurement using Millicell-ERS (Electrical Resistance System) Voltohmmeter (Millipore, MERS00002). […]
IL-8 levels were measured by ELISA (BD Biosciences, 555244). […] Absorbances were measured using a microplate reader (BioTek, Synergy MX, model SMATLD) at 490 nm. […]

KKGSRSCFFIYLDRGTKKGSRSCFFYLP (NAT_29) [28-amino-acid fragment of microbiota protein ID3166]
IL-8 secretion (ELISA, basolateral side) (1000 or 10 nM, LF82 4 h (LF82 alone 4-fold increase)): completely abolished IL-8 secretion | TER reduction (pre-incubation 1 h at 1000 nM or 10 nM, then E. coli LF82 4 hours, LF82 alone 52%, control without LF82 24%): 32% | histology (H&E staining) of explants (pre-incubation with 1000 nM, LF82 4 h): protective effect against LF82-induced degradation
